Patent publication US20250099468A1, “TREATING LIVER DISORDERS WITH AN SSAO INHIBITOR” (Terns Pharmaceuticals, Inc., priority 2021, published 2025)
“Also recorded” adds a separate entry of the source.

Tests used:
MAO-A = target: T1, MAO-A (Homo sapiens, UniProt P21397); assay: Biochemical activity, MAO-A; settings: all single dose levels (1-10 mg)
T1 sequence (P21397 1-527): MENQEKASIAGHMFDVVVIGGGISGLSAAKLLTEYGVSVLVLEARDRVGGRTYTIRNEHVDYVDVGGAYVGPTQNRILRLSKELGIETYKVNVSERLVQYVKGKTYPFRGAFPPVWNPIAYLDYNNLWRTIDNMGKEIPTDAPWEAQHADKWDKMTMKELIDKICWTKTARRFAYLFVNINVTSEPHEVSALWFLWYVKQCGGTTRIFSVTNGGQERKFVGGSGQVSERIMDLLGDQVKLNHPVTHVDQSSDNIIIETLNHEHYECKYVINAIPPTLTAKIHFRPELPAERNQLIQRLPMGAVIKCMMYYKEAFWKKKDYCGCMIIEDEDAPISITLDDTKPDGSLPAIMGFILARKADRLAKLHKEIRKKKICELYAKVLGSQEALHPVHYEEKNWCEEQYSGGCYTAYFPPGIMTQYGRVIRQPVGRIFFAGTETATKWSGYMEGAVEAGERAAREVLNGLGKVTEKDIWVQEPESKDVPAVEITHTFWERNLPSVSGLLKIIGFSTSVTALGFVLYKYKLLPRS

rat model of NASH = assay: Rat model of NASH; type: in vivo
MAO-B = target: T2, MAO-B (Homo sapiens, UniProt P27338); assay: Biochemical activity, MAO-B; settings: all single dose levels (1-10 mg)
T2 sequence (P27338 1-520): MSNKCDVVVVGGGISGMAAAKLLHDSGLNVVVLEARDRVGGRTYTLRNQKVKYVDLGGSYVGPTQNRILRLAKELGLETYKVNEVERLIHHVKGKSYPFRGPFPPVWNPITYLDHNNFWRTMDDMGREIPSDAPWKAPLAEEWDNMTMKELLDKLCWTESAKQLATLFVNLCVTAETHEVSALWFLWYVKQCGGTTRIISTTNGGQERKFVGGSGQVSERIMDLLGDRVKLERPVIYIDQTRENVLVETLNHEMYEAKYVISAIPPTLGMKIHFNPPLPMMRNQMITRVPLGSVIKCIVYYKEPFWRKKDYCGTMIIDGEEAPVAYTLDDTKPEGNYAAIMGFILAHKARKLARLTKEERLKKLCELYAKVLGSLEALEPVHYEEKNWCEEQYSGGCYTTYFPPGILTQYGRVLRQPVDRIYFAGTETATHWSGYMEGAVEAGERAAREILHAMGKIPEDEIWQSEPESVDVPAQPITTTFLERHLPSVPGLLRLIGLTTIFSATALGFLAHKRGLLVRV

plasma methylamine [1] = assay: Single-ascending dose trial, plasma methylamine (MMA); type: in vivo, human; settings: single dose 1-10 mg
Protocol: (§1) Safety was assessed for 7 (±3) days after dosing.

plasma VAP-1 = target: T3, plasma VAP-1 (Homo sapiens, UniProt Q16853); assay: NASH patient study Part 1, plasma VAP-1 activity; type: in vivo; settings: 10 mg QD, through week 12
T3 construct: from tissue; host or cells: human plasma
T3 sequence (Q16853 29-763 limits assumed): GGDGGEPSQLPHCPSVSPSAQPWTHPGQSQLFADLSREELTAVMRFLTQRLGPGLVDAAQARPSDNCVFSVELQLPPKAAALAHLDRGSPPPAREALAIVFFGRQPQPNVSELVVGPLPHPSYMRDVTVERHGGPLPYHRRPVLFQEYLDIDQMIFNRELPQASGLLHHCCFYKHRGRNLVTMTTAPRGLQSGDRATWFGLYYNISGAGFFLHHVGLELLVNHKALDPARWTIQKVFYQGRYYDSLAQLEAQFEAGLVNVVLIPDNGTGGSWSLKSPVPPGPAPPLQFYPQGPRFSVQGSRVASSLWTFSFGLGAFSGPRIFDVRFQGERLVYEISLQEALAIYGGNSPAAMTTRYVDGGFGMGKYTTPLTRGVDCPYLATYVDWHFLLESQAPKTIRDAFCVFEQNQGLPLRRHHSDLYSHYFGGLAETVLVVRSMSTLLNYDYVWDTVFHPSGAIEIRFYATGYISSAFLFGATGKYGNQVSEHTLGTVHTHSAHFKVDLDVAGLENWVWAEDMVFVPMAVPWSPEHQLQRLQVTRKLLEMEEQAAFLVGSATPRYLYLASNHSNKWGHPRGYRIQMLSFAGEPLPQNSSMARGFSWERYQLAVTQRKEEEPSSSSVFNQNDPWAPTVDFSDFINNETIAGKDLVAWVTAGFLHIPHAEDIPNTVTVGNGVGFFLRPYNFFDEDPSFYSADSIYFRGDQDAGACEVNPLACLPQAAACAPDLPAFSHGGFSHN
Protocol: (§2) Part 1 interim analysis primary endpoint was safety assessed by adverse events (AEs) and laboratory tests; percent change from baseline (BL) in plasma VAP-1 activity was a secondary endpoint. Exploratory imaging and blood-based biomarkers of liver inflammation and fibrosis were also assessed. Analyses of change (or percent change) from baseline used an ANCOVA model with change (or percent change) from baseline as the dependent variable including treatment group and randomization strata as fixed effects and baseline as a covariate.

[2] = tested on: NASH and inflammation biomarkers; assay: NASH patient study Part 1, imaging and blood biomarkers of liver inflammation and fibrosis; type: in vivo, human
Protocol: Plasma samples are collected for measurement of plasma concentrations of study drug and metabolites. Urine samples are collected for measurement of urine concentrations of study drug and metabolites. Patients who are not participating in the PK/PD sub-study undergo trough PK sampling only. Blood collection for NASH/fibrosis markers (CK-18 (M30 and M65), PIIINP, TIMP-1, HA, PRO-C3, and C3M) and inflammation markers (hs-CRP, IL-6, ICAM-1, and VCAM-1) are also conducted. The following exploratory fibrosis scores may also be calculated: FIB-4, enhanced liver fibrosis (ELF), and NAFLD. The PRO-C3/C3M ratio may be calculated. Patients are monitored for adverse events.
as §2

[3] = Multiple-ascending dose clinical trial, plasma PK; type: in vivo, human
Protocol: (§3) A multiple-ascending dose clinical trial of Compound 1 was performed.

[4] = Multiple-ascending dose clinical trial, safety; type: in vivo, human
Protocol: as §3

plasma SSAO [5] = target: T4, plasma SSAO (Homo sapiens, UniProt Q16853); assay: Multiple-ascending dose trial, plasma SSAO / amine oxidase activity; type: in vivo
T4 construct: from tissue; host or cells: human plasma
T4 sequence (Q16853 29-763 limits assumed): T3 sequence (Q16853 29-763 limits assumed)
Protocol: as §3

[6] = Single-ascending dose clinical trial, plasma PK; type: in vivo, human; settings: for plasma PK exposure increase with dose: single dose, between 3 and 10 mg
Protocol: as §1
(§4) Plasma PK parameters were determined by non-compartmental analysis.

[7] = NASH patient study Part 1, safety; type: in vivo, human; settings: 10 mg QD 12 weeks, NASH patients
Protocol: as §2

plasma SSAO [8] = target: T4, plasma SSAO; assay: Single-ascending dose trial, plasma SSAO / amine oxidase activity; type: in vivo
Protocol: as §1, §4
SSAO-specific amine oxidase levels in plasma were determined using a kinetic-based assay essentially as described previously (Schilter et al). Endogenous monoamine oxidases A and B were inhibited by adding pargyline to plasma samples prior to measuring H2O2 generation levels in placebo and active recipients.

plasma methylamine [9] = assay: Multiple-ascending dose trial, plasma methylamine; type: in vivo, human
Protocol: as §3

[10] = Single-ascending dose clinical trial, safety; type: in vivo, human; settings: single dose 6 mg or placebo (n = 8)
Protocol: as §1

[11] = 1, 4 mg QD 7 days, 10 mg QD 14 days

SMILES: COC1CCN(c2ncc(OC/C(=C/F)CN)cn2)CC1 [Compound 1, (E)-3-fluoro-2-(((2-(4-methoxypiperidin-1-yl)pyrimidin-5-yl)oxy)methyl)prop-2-en-1-amine]
- Cmax relative to IC50 for MAO-A (times lower) (MAO-A): more than 800 times
- liver inflammation and fibrosis (rat model of NASH): decreases liver inflammation and fibrosis
- Cmax relative to IC50 for MAO-B (times lower) (MAO-B): more than 800 times
- plasma methylamine (MMA) levels (plasma methylamine [1]): increased; also recorded: Dose-dependent increases
- inhibition of plasma VAP-1 activity (plasma VAP-1): sustained suppression; also recorded: near complete inhibition
- changes in cT1 from baseline to end of treatment ([2]; 10 mg QD 12 weeks): no significant changes
- difference from placebo in change from BL cT1, liver fat fraction, liver enzymes, or cytokeratin-18 ([2]; 10 mg QD 12 weeks): no statistically significant differences
- ICAM-1 decrease relative to BL, mean (±SE) ([2]; 10 mg QD, Week 8): 34.85 (56.03) μg/L
- TIMP-1 decrease relative to BL, mean (±SE) ([2]; 10 mg QD, Week 12): 29.58 (9.26) ng/ml
- VCAM-1 decrease relative to BL, mean (±SE) ([2]; 10 mg QD, Week 12): 24.327 (20.5850) μg/L
- plasma PK exposure increases between dose groups ([3]; Day 1, 1, 4, 10 mg): greater than dose proportional
- accumulation after multiple QD doses ([3]; each dose level): significant accumulation
- discontinuation due to an adverse event [4, 11]: No subject discontinued
- severity of adverse events [4, 11]: mild (grade 1)
- safety and tolerability (laboratory, vital signs, ECG) ([4]; up to 10 mg QD for 14 days, healthy subjects): no notable findings; also recorded: safe and well tolerated
- duration of near complete inhibition of plasma SSAO amine oxidase activity after cessation of dosing (plasma SSAO [5]; after multiple QD doses): up to 2 weeks
- inhibition of total amine oxidase (plasma SSAO [5]; plasma, single and multiple doses): incomplete
- plasma PK exposure increase with dose [6]: greater than dose proportional
- severity of AEs [7]: mild or moderate
- tolerability [7]: well-tolerated
- duration of SSAO activity inhibition after a single dose (plasma SSAO [8]; single dose 1 mg to 10 mg): up to seven days
- duration of suppression of plasma SSAO amine oxidase activity after a single dose (plasma SSAO [8]; single dose 1-10 mg): up to 1 week
- plasma methylamine levels (plasma methylamine [9]; Day 1): increased in a dose proportional manner
- plasma methylamine levels (plasma methylamine [9]; last day of administration, after multiple doses): further increases

SMILES: COC1CCN(c2ncc(OC/C(=C/F)CN)cn2)CC1.Cc1ccc(S(=O)(=O)O)cc1 [tosylate salt of Compound 1]
- Subject incidence of any TEAE [10]: 2 (25)
- TEAE frequency: contact dermatitis [10]: 2 (25)
- TEAE frequency: sore throat [10]: 1 (12.5)
- plasma PK exposure increase with dose [6]: greater than dose proportional
- clearance from plasma ([6]; single doses): rapidly cleared from plasma
